Like-named read-outs stand apart in the source and are kept apart here.
How the values were obtained:
[1] = biological target: T1, EHD4^ΔN (Mus musculus, UniProt Q9EQP2); test: Malachite green (MLG)-based liposome-stimulated ATPase assay of EHD4ΔN; format: biochemical; settings: read-out: IC50, EHD4ΔN ATPase inhibition
T1 construct: mouse EHD4 (Uniprot Q1MWP8, residues 22–541, EHD4^ΔN); His6 followed by PreScission cleavage site (N, cleaved yes); made in house; host or cells: E. coli BL21 DE3 Rosetta
T1 sequence (Q9EQP2 22-541): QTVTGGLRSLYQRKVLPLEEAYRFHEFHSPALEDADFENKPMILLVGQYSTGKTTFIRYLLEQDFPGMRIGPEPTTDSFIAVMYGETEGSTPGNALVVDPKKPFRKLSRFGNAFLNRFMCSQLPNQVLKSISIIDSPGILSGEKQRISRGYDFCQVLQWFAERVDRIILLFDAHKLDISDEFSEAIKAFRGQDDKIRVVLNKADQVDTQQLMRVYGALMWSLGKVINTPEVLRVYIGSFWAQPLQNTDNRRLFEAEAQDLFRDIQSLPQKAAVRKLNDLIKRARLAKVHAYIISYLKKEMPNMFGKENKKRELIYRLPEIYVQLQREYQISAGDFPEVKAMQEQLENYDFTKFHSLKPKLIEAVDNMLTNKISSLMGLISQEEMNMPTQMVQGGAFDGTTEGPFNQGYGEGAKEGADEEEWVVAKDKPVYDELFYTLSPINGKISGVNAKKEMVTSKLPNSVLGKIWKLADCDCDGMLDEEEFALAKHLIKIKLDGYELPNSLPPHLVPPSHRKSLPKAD
Description: ATPase assays were performed in a 384 well plate at 25°C (if not otherwise indicated). The assay buffer contained 20 mM HEPES, 150 mM KCl, 0.5 mM MgCl2, pH 7.5. 30 μM of ATP was mixed with 50 μg/ml DOPS in assay buffer. Reaction was started by adding 200 nM EHD4^ΔN. At any given time-point, 25 μl of the reaction was taken out and mixed with 75 μl of the dye in a 384 well plate. The reaction gets quenched by the addition of the dye which denatures the protein. Absorbance at 650 nm was measured in a plate reader (Tecan, Infinite M200).
Screening was conducted at the Screening Unit of the Leibniz-Forschungsinstitut für Molekulare Pharmakologie (FMP) using a kinase drug library and the ‘diversity set’. 15,840 compounds were tested as singlets in 384 well plate format. A master mix (MM) was prepared in the assay buffer to have a final ATP concentration of 30 μM and DOPS concentration of 50 μg/ml. A 10 mM DMSO solution of the compounds was serially diluted, first with DMSO and then with the MM to a final concentration of 10 μM (1% of DMSO), using the Tecan-Evo workstation (pipetting robot). EHD4^ΔN (200 nM) was pipetted using multi-drop dispensing cassette. To have homogenous enzymatic activity, the plates were vortexed using a microplate mixer at 2,000 rpm for 10 s. The plates were incubated for 15 min at room temperature and 75 μl of MLG dye added with the cassette. The plates were measured in a Perkin Elmer Envision plate reader.
Data were analyzed with an automated pipeline using KNIME software. For the individual plates, the corresponding Z´ values and SNR were calculated. Compared to the control´s absorbance at 650 nm (Abs650), compounds were classified as inhibitors if the %Abs650 was ≤ 25%. These hits were picked from the drug library and used for further validation of IC50 determination and counter screening. IC50 values were determined in the same setup with varying inhibitor concentrations from 0.125 μM to 50 μM.

[2] = biological target: T2, EHD2 (Mus musculus, UniProt Q8BH64); test: HPLC-based EHD2 ATPase assay; format: biochemical; settings: 5 μM EHD2, 500 μg/ml Folch liposomes, 50 μM ATP, 30°C
T2 construct: Mouse EHD2 (Uniprot Q8BH64, residues 1–543); made in house
T2 sequence (Q8BH64 1-543): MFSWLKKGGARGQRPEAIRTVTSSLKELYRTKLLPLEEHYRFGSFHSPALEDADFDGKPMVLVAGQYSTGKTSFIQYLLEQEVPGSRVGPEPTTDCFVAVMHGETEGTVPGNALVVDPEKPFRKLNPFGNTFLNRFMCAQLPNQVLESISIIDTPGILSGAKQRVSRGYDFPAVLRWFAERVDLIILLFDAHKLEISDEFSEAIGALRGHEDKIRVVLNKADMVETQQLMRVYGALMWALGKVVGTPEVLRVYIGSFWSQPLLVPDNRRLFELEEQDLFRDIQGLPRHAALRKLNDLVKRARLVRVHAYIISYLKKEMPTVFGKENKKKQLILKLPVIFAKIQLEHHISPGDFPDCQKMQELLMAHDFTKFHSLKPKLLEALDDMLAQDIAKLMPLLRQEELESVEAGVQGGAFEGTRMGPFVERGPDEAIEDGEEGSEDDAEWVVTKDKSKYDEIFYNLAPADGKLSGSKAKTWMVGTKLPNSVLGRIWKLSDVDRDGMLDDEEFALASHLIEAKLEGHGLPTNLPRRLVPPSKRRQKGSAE
Description: ATPase assay was performed as mentioned above and at defined time points, reaction aliquots were diluted three times in reaction buffer (50 mM Tris, 150 mM NaCl, pH 7.5) and quickly flash frozen in liquid nitrogen. Samples were applied to an HPLC and nucleotides were separated with reversed phase column (C18 100*4.6 mm) equilibrated with running buffer containing 100 mM potassium phosphate buffer pH 6.5, 10 mM tetrabutylammonium bromide, 7.5% (v/v) acetonitrile. Adenine nucleotides were detected by absorption at 254 nm and quantified by integrating the corresponding nucleotide peaks and determining the ADP/ATP ratios.
Fig 5 Biochemical characterization of the primary hits. A One-hour time course of the MLG-based enzymatic ATPase assay in the presence of 50 μM inhibitor. EHD4^ΔN (blue curve) represents the positive control. B Primary hits were validated at 50 μM inhibitor concentration in an HPLC setup to exclude assay bias. ATPase assays done in A and B were in standard conditions. C Primary hits were tested against EHD2. Only MS8 had no effect on EHD2 ATPase activity. ATPase assay was done at an EHD2 concentration of 5 μM in the presence of 500 μg/ml Folch liposomes and 50 μM ATP in assay buffer at 30°C. D Changes in melting temperature of 5 μM EHD4^ΔN were studied in the presence of 50 μM inhibitor by thermal shift assay. MS1 and MS10 destabilized the protein, as evident by negative ΔTm, whereas MS8 had no effect on the stability of EHD4^ΔN. […] Shown is an IC50 curve plotted with an inhibitor concentration range from 0.125 μM to 50 μM. F MS8 substructure obtained by dissecting the diphenlyether bond. […]
Supplementary file pone.0302704.s004.tif: S4 Fig DNM1L and EHD2 enzymatic assay. […] B Initial velocities of DNM1L GTPase activity at 300 nM DNM1L, and, 500 μg/ml synthetic DOPS, T = 25°C and at different GTP concentrations were determined by a linear fit. C Km was determined by first calculating the amount of hydrolyzed GTP in (B) using the standard curve reported in S2C Fig and then plotting the initial rates of the reactions versus the substrate concentration. […]

[3] = biological target: T1, EHD4^ΔN; test: Thermal shift assay (TSA); format: binding; settings: 5 μM EHD4ΔN, 50 μM inhibitor
Description: TSA was done in a CFX96 touch-real time PCR using a fluorescent dye from ThermoFisher Scientific (catalogue number 4461146). Reactions (5 μM EHD4^ΔN, 50 μM inhibitor and 1X dye) were prepared on ice, to a final volume of 50 μl and transferred to a 96 well PCR plate and then sealed with a plastic film. CFX96 was precooled to 4°C and the PCR plate was inserted. The fluorescence was measured from 4°C to 80°C with 0.5°C temperature steps. Protein melting temperature was calculated with the provided software (Bio-Rad) and plotted as bar diagram using GraphPad Prism 7.05.

[4] = biological target: T3, DNM1L (Homo sapiens, UniProt O00429); test: MLG-based stimulated GTPase assay of DNM1L (counter-screen); format: biochemical; settings: 300 nM DNM1L, 40 μM GTP, 25°C; inhibitor 0.125 μM to 50 μM (IC50 curve) or 10 μM (time course)
T3 construct: human DNM1L isoform 2 (UniProtID: O00429-3, residues 1–710); made in house
Description: Fig 5 Biochemical characterization of the primary hits. A One-hour time course of the MLG-based enzymatic ATPase assay in the presence of 50 μM inhibitor. EHD4^ΔN (blue curve) represents the positive control. B Primary hits were validated at 50 μM inhibitor concentration in an HPLC setup to exclude assay bias. ATPase assays done in A and B were in standard conditions. C Primary hits were tested against EHD2. Only MS8 had no effect on EHD2 ATPase activity. ATPase assay was done at an EHD2 concentration of 5 μM in the presence of 500 μg/ml Folch liposomes and 50 μM ATP in assay buffer at 30°C. D Changes in melting temperature of 5 μM EHD4^ΔN were studied in the presence of 50 μM inhibitor by thermal shift assay. MS1 and MS10 destabilized the protein, as evident by negative ΔTm, whereas MS8 had no effect on the stability of EHD4^ΔN. […] Shown is an IC50 curve plotted with an inhibitor concentration range from 0.125 μM to 50 μM. F MS8 substructure obtained by dissecting the diphenlyether bond. This substructure was used in our chemical search to have the highest diversity of the chemical space and the optimal coverage of chemical vectors to gain a structure-activity relationship.Data points represents the mean of two or more independent experiments and the error bar signifies the range or standard deviation. […] TEXT PRINTED IN THE PICTURE: (D) EHD4^ΔN: Tm = 44.5 °C DOUBTS OF THE COPYIST ABOUT THIS PICTURE: Panel D: 'EHD4^ΔN Tm = 44.5 °C' is the only printed result. It refers to the protein itself (reference melting temperature), not to one of the inhibitors MS1, MS8 or MS10, so it may not count as a result for a substance.
Supplementary file pone.0302704.s004.tif: S4 Fig DNM1L and EHD2 enzymatic assay. A EHD2 ATPase activity by an HPLC-based method. Assay conditions were 5 μM EHD2, 50 μM ATP and 1 mg/ml Folch liposomes at 30°C. […] C Km was determined by first calculating the amount of hydrolyzed GTP in (B) using the standard curve reported in S2C Fig and then plotting the initial rates of the reactions versus the substrate concentration. […]

[5] = compounds picked from the drug library, duplicates, inhibitor 0.125 μM to 50 μM, 200 nM EHD4ΔN, 30 μM ATP, 50 μg/ml DOPS

T3 sequence (O00429 1-710 isoform O00429-3): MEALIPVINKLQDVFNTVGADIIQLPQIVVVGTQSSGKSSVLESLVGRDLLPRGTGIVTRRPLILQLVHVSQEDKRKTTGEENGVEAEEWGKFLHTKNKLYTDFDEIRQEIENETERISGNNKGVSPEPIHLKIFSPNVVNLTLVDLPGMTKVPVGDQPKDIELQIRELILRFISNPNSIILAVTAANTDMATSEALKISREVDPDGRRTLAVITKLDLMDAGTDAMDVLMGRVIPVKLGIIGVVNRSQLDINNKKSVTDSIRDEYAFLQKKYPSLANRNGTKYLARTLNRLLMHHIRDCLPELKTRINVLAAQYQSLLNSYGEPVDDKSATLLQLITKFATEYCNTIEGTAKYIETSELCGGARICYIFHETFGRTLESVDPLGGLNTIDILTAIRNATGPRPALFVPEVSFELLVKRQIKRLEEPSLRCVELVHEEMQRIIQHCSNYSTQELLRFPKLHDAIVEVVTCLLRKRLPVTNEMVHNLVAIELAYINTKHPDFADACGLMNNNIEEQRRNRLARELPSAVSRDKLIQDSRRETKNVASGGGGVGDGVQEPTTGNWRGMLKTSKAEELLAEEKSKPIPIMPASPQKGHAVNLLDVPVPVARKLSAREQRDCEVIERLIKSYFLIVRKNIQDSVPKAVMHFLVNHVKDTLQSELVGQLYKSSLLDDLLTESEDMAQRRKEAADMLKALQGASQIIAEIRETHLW

IC50 [1, 5] | IC50 ([1]; repurchased compounds) | effect on EHD2 enzymatic (ATPase) activity [2] | effect on EHD4ΔN stability (thermal shift) [3] | effect on stimulated GTPase activity of DNM1L [4] | ΔTm at 50 µM ([3]; Tm of protein alone 44.5°C) | Structure (SMILES)
2.9 µM | 4.8 µM | inhibited | diminished EHD4^ΔN stability | did not interfere |  | Oc1cc2c(cc1C(c1ccc(C(F)(F)F)cc1)N1CCOCC1)OCO2 (stereo not shown) [MS10, 6-(Morpholino(4-(Trifluormethyl)phenyl)methyl)-1,3-Benzodioxol-5-ol]
3.8 µM | 4.9 µM | no effect | no such effect | did not inhibit |  | Cc1csc(NC(=O)c2cccc(Oc3ccccc3)c2)n1 [MS8, N-(4-methyl-1,3-thiazol-2-yl)-3-phenoxybenzamide]
0.92 µM | 2.4 µM | inhibited | destabilizing effect | did not interfere | -5 °C | O=C(CCCCCn1sc2ccccc2c1=O)Nc1ccccc1O [MS1, N-(2-hydroxyphenyl)-6-(3-oxo-2,3-dihydro-1,2-benzothiazol-2-yl)hexanamide]
